Measurements published in patent publication US8124641B2, “Aminotetrahydroindazoloacetic acids” (Hoffmann-La Roche Inc., priority 2008, dated 2012).

Target: T1, human CRTH2 (Homo sapiens, UniProt Q9Y5Y4)
T1 construct: expressed in transfected cells
T1 sequence (Q9Y5Y4 1-395): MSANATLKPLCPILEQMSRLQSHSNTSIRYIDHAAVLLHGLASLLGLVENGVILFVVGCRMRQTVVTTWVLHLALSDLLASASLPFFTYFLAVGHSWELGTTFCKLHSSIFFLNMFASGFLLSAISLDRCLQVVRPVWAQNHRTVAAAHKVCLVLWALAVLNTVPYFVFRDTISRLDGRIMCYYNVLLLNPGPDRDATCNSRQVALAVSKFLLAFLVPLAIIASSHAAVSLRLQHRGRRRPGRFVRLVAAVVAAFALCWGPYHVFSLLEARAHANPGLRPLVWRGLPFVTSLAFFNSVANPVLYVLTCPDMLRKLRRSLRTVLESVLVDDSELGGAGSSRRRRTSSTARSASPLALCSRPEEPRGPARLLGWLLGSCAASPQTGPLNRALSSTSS
Assay: Human CRTH2 Receptor Binding Assay (whole cell, [3H]ramatroban competition)
Conditions: CHO-K1 cells stably expressing human CRTH2 and G-alpha16; 20 nM [3H]ramatroban; 1 hour, room temperature
Text: A whole cell receptor binding assay using [^3H]ramatroban as the competing radioactive ligand was employed to evaluate the compound binding activity to human CRTH2. The radioactive ligand [^3H]ramatroban was synthesized according to Sugimoto et. al. (Eur. J. Pharmacol. 524, 30-37, 2005) to a specific activity of 42 Ci/mmol.
A cell line stably expressing human CRTH2 was established by transfecting CHO-K1 cells with two mammalian expression vectors that harbored human CRTH2 and G-alpha16 cDNAs, respectively, using FuGene® 6 transfection reagent (from Roche). Stable clones expressing CRTH2 were selected by staining each clone with BM16 (BD Pharmingen™ from BD Biosciences, a division of Becton, Dickinson and Company), which is a rat monoclonal antibody to human CRTH2. The cells were maintained as monolayer cultures in Ham's F-12 medium containing 10% fetal bovine serum, 100 units/mL penicillin, 100 μg/mL streptomycin, 2 mM glutamine, 0.5 mg/mL G418 (geneticin) for CRTH2, and 0.2 mg/mL hygromycin-B (for G-alpha 16). For whole cell receptor binding assay, the monolayer cells were rinsed once with PBS (phosphate buffered saline), dissociated using ethylenediaminetetraacetate (Versene™ EDTA from Lonza Inc.), and suspended in PBS containing 10 mM MgCl2 and 0.06% BSA (bovine serum albumin) at 1.5×10^6 cells/mL.
The binding reactions (0.2 mL) were performed in 96-well plates at room temperature in PBS containing 1.5×10^5 cells, 10 mM MgCl2, 0.06% BSA, 20 nM [^3H]ramatroban, and test compound at various concentrations. After 1 hour of binding reactions, the cells were harvested on GF™/B filter microplates (microtiter plates with embedded glass fiber from PerkinElmer, Inc.) and washed 5 times with PBS using a Filtermate™ Harvester (a cell harvester that harvests and washes cells from microplates from PerkinElmer, Inc.). The radioactivities bound to the cells were determined using a microplate scintillation counter (TopCount® NXT, from PerkinElmer, Inc.) after adding 50 μL of Microscint™ 20 scintillation fluid (from PerkinElmer, Inc.) to each well of the filter plates. The radioactivity from non-specific binding was determined by replacing compound with 10 μM of 15(R)-15-methyl PGD2 (from Cayman Chemical Company) in the reaction mixtures. The radioactivity bound to the cells in the absence of compound (total binding) was determined by replacing compound with 0.25% of DMSO (dimethyl sulfoxide) in the reaction mixture. Specific binding data were obtained by subtracting the radioactivity of non-specific binding from each binding data.
The IC50 value is defined as the concentration of the tested compound that is required for 50% inhibition of total specific binding. In order to calculate the IC50 value, the percent inhibition data were determined for 7 concentrations for each compound. The percent inhibition for a compound at each concentration was calculated according to the following formula, [1−(specific binding in the presence of compound)/(total specific binding)]×100. The IC50 value was then obtained by fitting the percent inhibition data to a sigmoidal dose-response (4 parameter logistic) model in the XLfit® software Excel add-in program [from ID Business Solutions Ltd., model 205, where F(x)=(A+(B−A)/(1+((C/x)^D)))].

Row | IC50 [nM] | SMILES
1 | 7.3 | CC(C)c1cc(C(F)(F)F)cc(S(=O)(=O)N(C)[C@@H]2CCCc3c2cnn3CC(=O)O)c1 [Example 13-1a, {(R)-4-[(3-isopropyl-5-trifluoromethyl-benzenesulfonyl)-methyl-amino]-4,5,6,7-tetrahydro-indazol-1-yl}-acetic acid]
2 | 55.6 | CN([C@@H]1CCCc2c1cnn2CC(=O)O)S(=O)(=O)c1cc(C(F)(F)F)cc([Si](C)(C)C)c1 [Example 17-1a, {(R)-4-[Methyl-(3-trifluoromethyl-5-trimethylsilanyl-benzenesulfonyl)-amino]-4,5,6,7-tetrahydro-indazol-1-yl}-acetic acid]
3 | 28.6 | CN([C@@H]1CCCc2c1cnn2CC(=O)O)S(=O)(=O)c1cc(C2CCCC2)cc(C(F)(F)F)c1 [Example 18-1a, {(R)-4-[(3-Cyclopentyl-5-trifluoromethyl-benzenesulfonyl)-methyl-amino]-4,5,6,7-tetrahydro-indazol-1-yl}-acetic acid]
4 | 278 | CN([C@@H]1CCCc2c1cnn2C(C)(C)C(=O)O)S(=O)(=O)c1cc(C(F)(F)F)cc(C(F)(F)F)c1 [Example 21-1a, 2-{(R)-4-[(3,5-Bis-trifluoromethyl-benzenesulfonyl)-methyl-amino]-4,5,6,7-tetrahydro-indazol-1-yl}-2-methyl-propionic acid]
5 | 80.1 | CC(=O)Nc1cccc(S(=O)(=O)NC2CCCc3c2cnn3CC(=O)O)c1 (stereo not shown) [Example 22-1a, [4-(3-Acetylamino-benzenesulfonylamino)-4,5,6,7-tetrahydro-indazol-1-yl]-acetic acid]
6 | 39.5 | CS(=O)(=O)Nc1cccc(S(=O)(=O)NC2CCCc3c2cnn3CC(=O)O)c1 (stereo not shown) [Example 23-1a, [4-(3-Methanesulfonylamino-benzenesulfonylamino)-4,5,6,7-tetrahydro-indazol-1-yl]-acetic acid]
7 | 38.1 | CN([C@@H]1CCCc2c1cnn2CC(=O)O)S(=O)(=O)c1cc(N2CCCC2)cc(C(F)(F)F)c1 [Example 24-1a, {(R)-4-[Methyl-(3-pyrrolidin-1-yl-5-trifluoromethyl-benzenesulfonyl)-amino]-4,5,6,7-tetrahydro-indazol-1-yl}-acetic acid]
8 | 146 | CCN(CC)c1cc(C(F)(F)F)cc(S(=O)(=O)N(C)[C@@H]2CCCc3c2cnn3CC(=O)O)c1 [Example 24-4a, {(R)-4-[(3-Diethylamino-5-trifluoromethyl-benzenesulfonyl)-methyl-amino]-4,5,6,7-tetrahydro-indazol-1-yl}-acetic acid]
9 | 22 | O=C(O)Cn1ncc2c1CCCC2NS(=O)(=O)c1cc(C2CC2)cc(C(F)(F)F)c1 (stereo not shown) [Example 25-1a, [4-(3-Cyclopropyl-5-trifluoromethyl-benzenesulfonylamino)-4,5,6,7-tetrahydro-indazol-1-yl]-acetic acid]

The remaining lines, values behind:

Row | SMILES | IC50 [nM]
10 | CN([C@@H]1CCCc2c1cnn2CC(=O)O)S(=O)(=O)c1cc(C(F)(F)F)cc(C2(C)CC2)c1 [Example 14-1a, ((R)-4-{Methyl-[3-(1-methyl-cyclopropyl)-5-trifluoromethyl-benzenesulfonyl]-amino}-4,5,6,7-tetrahydro-indazol-1-yl)-acetic acid] | 6.2
11 | CCC1(c2cc(C(F)(F)F)cc(S(=O)(=O)N(C)[C@@H]3CCCc4c3cnn4CC(=O)O)c2)CC1 [Example 15-1a, ((R)-4-{[3-(1-Ethyl-cyclopropyl)-5-trifluoromethyl-benzenesulfonyl]-methyl-amino}-4,5,6,7-tetrahydro-indazol-1-yl)-acetic acid] | 12.3
12 | C#Cc1cc(C(F)(F)F)cc(S(=O)(=O)NC2CCCc3c2cnn3CC(=O)O)c1 (stereo not shown) [Example 16-1a, [4-(3-Ethynyl-5-trifluoromethyl-benzenesulfonylamino)-4,5,6,7-tetrahydro-indazol-1-yl]-acetic acid] | 69.8
13 | CC(=O)c1cc(C(F)(F)F)cc(S(=O)(=O)N(C)[C@@H]2CCCc3c2cnn3CC(=O)O)c1 [Example 19-1a, {(R)-4-[(3-Acetyl-5-trifluoromethyl-benzenesulfonyl)-methyl-amino]-4,5,6,7-tetrahydro-indazol-1-yl}-acetic acid] | 7
14 | CN([C@@H]1CCCc2c1cnn2CC(=O)O)S(=O)(=O)c1cc(C(C)(F)F)cc(C(F)(F)F)c1 [Example 20-1a, ((R)-4-{[3-(1,1-Difluoro-ethyl)-5-trifluoromethyl-benzenesulfonyl]-methyl-amino}-4,5,6,7-tetrahydro-indazol-1-yl)-acetic acid] | 3.5
15 | CC(C)N(C)c1cc(C(F)(F)F)cc(S(=O)(=O)N(C)[C@@H]2CCCc3c2cnn3CC(=O)O)c1 [Example 24-2a, ((R)-4-{[3-(Isopropyl-methyl-amino)-5-trifluoromethyl-benzenesulfonyl]-methyl-amino}-4,5,6,7-tetrahydro-indazol-1-yl)-acetic acid] | 45.7
16 | CN(C)c1cc(C(F)(F)F)cc(S(=O)(=O)N(C)[C@@H]2CCCc3c2cnn3CC(=O)O)c1 [Example 24-3a, {(R)-4-[(3-Dimethylamino-5-trifluoromethyl-benzenesulfonyl)-methyl-amino]-4,5,6,7-tetrahydro-indazol-1-yl}-acetic acid] | 62.2
17 | Cc1cc(C(F)(F)F)cc(S(=O)(=O)NC2CCCc3c2cnn3CC(=O)O)c1 (stereo not shown) [Example 25-2a, [4-(3-Methyl-5-trifluoromethyl-benzenesulfonylamino)-4,5,6,7-tetrahydro-indazol-1-yl]-acetic acid] | 142
18 | C=C(C)c1cc(C(F)(F)F)cc(S(=O)(=O)NC2CCCc3c2cnn3CC(=O)O)c1 (stereo not shown) [Example 25-3a, [4-(3-Isopropenyl-5-trifluoromethyl-benzenesulfonylamino)-4,5,6,7-tetrahydro-indazol-1-yl]-acetic acid] | 40.4
19 | CN([C@@H]1CCCc2c1cnn2CC(=O)O)S(=O)(=O)c1cc(C2CC2)cc(C(F)(F)F)c1 [Example 26-1a, {(R)-4-[(3-Cyclopropyl-5-trifluoromethyl-benzenesulfonyl)-methyl-amino]-4,5,6,7-tetrahydro-indazol-1-yl}-acetic acid] | 16.3
